The record followed here is patent publication US8163909B2, “Substituted hydroxyethyl amine compounds as beta-secretase modulators and methods of use” (Amgen Inc., priority 2007, dated 2012).

SMILES strings stand for the structures.

Series [1] in a line: Microsomal stability assay, rat liver microsomes.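 Further: rat liver microsomes (0.25 mg/mL) with about 1 µM compound plus 1 mM NADPH, pH 7.4, 37 °C for 30 min, parent left measured by LC-MS/MS against 0 min.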 Particulars: rat liver microsomes.
For series [2], the system named is Aβ40 in conditioned medium of cells stably expressing Amyloid Precursor Protein (APP). Briefly: In vitro BACE cell-based assay (Aβ40 in conditioned medium, sandwich ELISA).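 Further: compounds added as a dilution series, secreted peptide quantified by europium time-resolved fluorescence readout, potency fitted from percent of control versus compound concentration.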 Particulars: Homo sapiens, HEK293, HEK cell-based assay IC50; read-out: HEK cell assay.
The next series deals with CYP3A4 (CYP3A) (Homo sapiens, UniProt P08684). Briefly: in vitro. To be noted: microsomes, pH 7.4.
CYP3A4 (CYP3A), sequence (P08684 2-503): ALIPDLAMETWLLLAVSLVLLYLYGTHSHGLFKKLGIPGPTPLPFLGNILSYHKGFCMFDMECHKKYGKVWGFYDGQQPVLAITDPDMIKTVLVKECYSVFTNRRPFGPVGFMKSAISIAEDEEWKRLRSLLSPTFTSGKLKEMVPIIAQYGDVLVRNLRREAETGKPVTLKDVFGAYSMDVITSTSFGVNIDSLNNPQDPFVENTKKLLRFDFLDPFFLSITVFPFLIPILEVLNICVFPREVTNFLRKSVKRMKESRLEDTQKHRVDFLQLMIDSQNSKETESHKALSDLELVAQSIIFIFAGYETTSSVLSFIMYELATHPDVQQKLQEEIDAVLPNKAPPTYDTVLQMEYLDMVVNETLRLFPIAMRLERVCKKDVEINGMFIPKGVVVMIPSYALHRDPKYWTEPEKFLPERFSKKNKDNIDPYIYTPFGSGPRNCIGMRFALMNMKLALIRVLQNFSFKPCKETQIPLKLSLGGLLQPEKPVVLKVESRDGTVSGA
Series [3] is described as follows: Microsomal stability assay, human liver microsomes.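 Further: pooled human liver microsomes at 0.25 mg/mL with 1 µM compound and NADPH at 37 °C, pH 7.4, for 30 min, unchanged parent quantified by LC-MS/MS against the 0 min sample.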 Particulars: human liver microsomes.
The target of a further series is CYP2D6 (Homo sapiens, UniProt P10635). Briefly: CYP2D6 inhibition assay (bufuralol, pooled human liver microsomes). Particulars: 2D6 IC50 (uM), CYP2D6 inhibition.
CYP2D6, sequence (P10635 whole entry): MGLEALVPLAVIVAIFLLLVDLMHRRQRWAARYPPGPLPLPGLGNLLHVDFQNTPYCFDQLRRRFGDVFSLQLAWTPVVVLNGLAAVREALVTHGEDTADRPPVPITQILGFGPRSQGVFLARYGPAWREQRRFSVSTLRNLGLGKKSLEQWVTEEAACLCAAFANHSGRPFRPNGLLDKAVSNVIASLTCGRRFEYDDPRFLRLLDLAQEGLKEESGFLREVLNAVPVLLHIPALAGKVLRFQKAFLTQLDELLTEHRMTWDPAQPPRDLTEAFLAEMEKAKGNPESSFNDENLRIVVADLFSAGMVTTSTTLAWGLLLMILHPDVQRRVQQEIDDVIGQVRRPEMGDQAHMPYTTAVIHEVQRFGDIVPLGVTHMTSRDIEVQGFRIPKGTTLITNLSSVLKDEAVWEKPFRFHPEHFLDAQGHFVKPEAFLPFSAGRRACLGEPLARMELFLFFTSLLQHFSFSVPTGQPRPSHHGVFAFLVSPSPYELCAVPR
Series [4] has as its target Beta Secretase enzyme (BACE) (Homo sapiens, UniProt P56817). Briefly: In vitro enzymatic BACE FRET (fluorescence resonance energy transfer) assay.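 Further: fluorescence read after 1 h with 50 nM quenched peptide substrate spanning the BACE cleavage site, in pH 4.2 acetate buffer containing 10% DMSO and nonionic detergent.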 Particulars: BACE enzyme assay IC50; read-out: BACE1 FRET assay. It is filed as biochemical.

Beta Secretase enzyme (BACE), sequence (P56817 46-501): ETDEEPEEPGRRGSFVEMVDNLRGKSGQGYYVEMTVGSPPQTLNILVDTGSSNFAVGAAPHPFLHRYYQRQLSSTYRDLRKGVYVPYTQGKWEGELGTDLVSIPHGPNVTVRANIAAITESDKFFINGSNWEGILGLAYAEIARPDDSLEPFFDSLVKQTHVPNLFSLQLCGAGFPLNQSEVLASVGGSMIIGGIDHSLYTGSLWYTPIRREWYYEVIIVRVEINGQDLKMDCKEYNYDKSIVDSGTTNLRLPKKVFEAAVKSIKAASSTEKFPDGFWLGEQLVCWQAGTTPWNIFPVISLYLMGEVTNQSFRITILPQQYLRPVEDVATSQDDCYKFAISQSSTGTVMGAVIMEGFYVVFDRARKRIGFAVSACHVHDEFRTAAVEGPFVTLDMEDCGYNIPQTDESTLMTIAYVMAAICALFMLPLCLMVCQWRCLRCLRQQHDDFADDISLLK

As to `COCC(=O)N[C@@H](Cc1cc(F)cc(F)c1)[C@H](O)CN[C@H]1CC2(CCC2)Oc2c1cc(CC(C)C)nc2-c1nccn1C` [compound 714], the “RLM” value in series [1] is 43 µL/min/mg. The IC50 in series [2] is 17 nM; at CYP3A4 (CYP3A), at most 30 nM; at CYP2D6 it was 2.2 µM; in series [4], 16 nM. The “HLM” value in series [3] came to 20 µL/min/mg.
For the molecule `COCC(=O)N[C@@H](Cc1cc(F)cc(F)c1)[C@H](O)CN[C@H]1CC2(CCC2)Oc2c1cc(CC(C)C)nc2-c1cncn1C` [compound 715], the “RLM” value in series [1] turned out to be 34 µL/min/mg. Moreover, the IC50 in series [2] is 16 nM; at CYP3A4 (CYP3A), at most 30 nM; on CYP2D6 it was 1.8 µM; in series [4], 20 nM. Further, the “HLM” value in series [3] is 19 µL/min/mg.
Consider `CNc1nc(CC(C)(C)C)cc2c1OC1(CCC1)C[C@@H]2NC[C@@H](O)[C@H](Cc1ccc(F)c(-c2nccs2)c1)NC(=O)COC` [compound 716, N-((1S,2R)-3-(((4′S)-6′-(2,2-dimethylpropyl)-8′-(methylamino)-3′,4′-dihydrospiro[cyclobutane-1,2′-pyrano[2,3-c]pyridin]-4′-yl)amino)-1-(4-fluoro-3-(1,3-thiazol-2-yl)benzyl)-2-hydroxypropyl)-2-methoxyacetamide], for which the “RLM” value in series [1] was 190 µL/min/mg. The IC50 in series [2] is 25 nM; at CYP3A4 (CYP3A), 400 nM; on CYP2D6, 1.5 µM; in series [4], 32 nM. Besides, the “HLM” value in series [3] stood at 123 µL/min/mg.
For the molecule `CC(C)(C)Cc1cnc2c(c1)[C@@H](NC[C@@H](O)[C@H](Cc1ccc(F)cc1)NC(=O)[C@H]1CN(Cc3ccccc3)CCO1)CC1(CCC1)O2` [compound 717], the “RLM” value in series [1] was 298 µL/min/mg. Also, the IC50 came out at 11 nM in series [2], 200 nM at CYP3A4 (CYP3A), 3.6 µM against CYP2D6 and 13 nM in series [4]. The “HLM” value in series [3] turned out to be 775 µL/min/mg.
For the molecule `COCC(=O)N[C@@H](Cc1cc(F)cc(-c2nccs2)c1)[C@H](O)CN[C@H]1CC2(CCC2)Oc2cnc(CC(C)(C)F)cc21` [compound 718, N-((1S,2R)-3-(((4′S)-6′-(2-fluoro-2-methylpropyl)-3′,4′-dihydrospiro[cyclobutane-1,2′-pyrano[2,3-c]pyridin]-4′-yl)amino)-1-(3-fluoro-5-(1,3-thiazol-2-yl)benzyl)-2-hydroxypropyl)-2-methoxyacetamide], in series [1], the “RLM” value worked out at 140 µL/min/mg. In addition, the IC50 in series [2] amounted to 62 nM; against CYP3A4 (CYP3A), 300 nM; against CYP2D6, 0.5 µM; in series [4], 51 nM. The “HLM” value in series [3] turned out to be 113 µL/min/mg.
With `CO[C@H](C)C(=O)N[C@@H](Cc1cc(F)cc(Cl)c1)[C@H](O)CN[C@H]1CC2(CCC2)Oc2cnc(CC(C)(C)F)cc21` [compound 719], the “RLM” value in series [1] worked out at 775 µL/min/mg. Besides, the IC50 turned out to be 130 nM in series [2], 400 nM at CYP3A4 (CYP3A), 2.4 µM at CYP2D6 and 24 nM in series [4]. Also, the “HLM” value in series [3] was found to be 515 µL/min/mg.
As to `CO[C@H](C)C(=O)N[C@@H](Cc1cc(F)cc(-c2nccs2)c1)[C@H](O)CN[C@H]1CC2(CCC2)Oc2cnc(CC(C)(C)F)cc21` [compound 721, (2R)-N-((1S,2R)-3-(((4′S)-6′-(2-fluoro-2-methylpropyl)-3′,4′-dihydrospiro[cyclobutane-1,2′-pyrano[2,3-c]pyridin]-4′-yl)amino)-1-(3-fluoro-5-(1,3-thiazol-2-yl)benzyl)-2-hydroxypropyl)-2-methoxypropanamide], the “RLM” value in series [1] turned out to be 152 µL/min/mg. Besides, the IC50 is 118 nM in series [2], 300 nM against CYP3A4 (CYP3A), 0.5 µM against CYP2D6 and 49 nM in series [4]. For the same molecule, the “HLM” value in series [3] was 111 µL/min/mg.
Regarding `CCC(=O)N[C@@H](Cc1ccc2c(c1)OCO2)[C@H](O)CN[C@H]1CC2(CCC2)Oc2ncc(CC(C)C)cc21` [compound 726, N-((1S,2R)-1-(1,3-benzodioxol-5-ylmethyl)-2-hydroxy-3-(((4′S)-6′-(2-methylpropyl)-3′,4′-dihydrospiro[cyclobutane-1,2′-pyrano[2,3-b]pyridin]-4′-yl)amino)propyl)propanamide], the “RLM” value in series [1] was found to be 173 µL/min/mg. Also, the IC50 in series [2] is 48 nM; against CYP3A4 (CYP3A), at most 30 nM; against CYP2D6 it was 1.4 µM; in series [4] it was 44 nM. Further, the “HLM” value in series [3] was determined as 34 µL/min/mg.
Consider `COCC(=O)N[C@@H](Cc1ccc(F)c(-c2nccs2)c1)[C@H](O)CN[C@H]1CC2(CCC2)Oc2ncc(CC(C)C)cc21` [compound 727], for which, in series [1], the “RLM” value is 74 µL/min/mg. The IC50 was 23 nM in series [2], at most 30 nM at CYP3A4 (CYP3A), 0.5 µM on CYP2D6 and 11 nM in series [4]. Also, the “HLM” value in series [3] was found to be 45 µL/min/mg.
In the case of `COCC(=O)N[C@@H](Cc1ccc(F)c(-c2ncc(C)s2)c1)[C@H](O)CN[C@H]1CC2(CCC2)Oc2ncc(CC(C)(C)C)cc21` [compound 729], the “RLM” value in series [1] is 399 µL/min/mg. Also, the IC50 stood at 291 nM in series [2], 400 nM at CYP3A4 (CYP3A), 3.9 µM on CYP2D6 and 48 nM in series [4]. The “HLM” value in series [3] came to 371 µL/min/mg.
Regarding `COCC(=O)N[C@@H](Cc1cc(F)cc(-c2ncc(C)s2)c1)[C@H](O)CN[C@H]1CC2(CCC2)Oc2ncc(CC(C)C)cc21` [compound 732], the “RLM” value in series [1] came out at 399 µL/min/mg. The IC50 in series [2] amounted to 83 nM; at CYP3A4 (CYP3A), 200 nM; against CYP2D6, 2.5 µM; in series [4], 18 nM. Further, the “HLM” value in series [3] stood at 551 µL/min/mg.
Take `COCC(=O)N[C@@H](Cc1cc(F)cc(-c2nc(C)cs2)c1)[C@H](O)CN[C@H]1CC2(CCC2)Oc2ncc(CC(C)C)cc21` [compound 733]: the “RLM” value in series [1] is 399 µL/min/mg. For the same molecule, the IC50 is 21 nM in series [2], at most 30 nM against CYP3A4 (CYP3A), 4.5 µM against CYP2D6 and 8 nM in series [4]. Also, the “HLM” value in series [3] stood at 249 µL/min/mg.
For `Cc1csc(CN2CCO[C@H](C(=O)N[C@@H](Cc3ccc(F)cc3)[C@H](O)CN[C@H]3CC4(CCC4)Oc4ncc(CC(C)(C)C)cc43)C2)n1` [compound 734], the “RLM” value in series [1] is 335 µL/min/mg. Moreover, the IC50 in series [2] was determined as 14 nM; against CYP3A4 (CYP3A) it was 100 nM; on CYP2D6, 2.4 µM; in series [4] it was 12 nM. Further, the “HLM” value in series [3] is 543 µL/min/mg.
With `CO[C@H](C)C(=O)N[C@@H](Cc1ccc(-c2nccs2)cc1)[C@H](O)CN[C@H]1CC2(CCC2)Oc2ncc(CC(C)(C)C)cc21` [compound 735], in series [1], the “RLM” value stood at 80 µL/min/mg. Also, the IC50 was 60 nM in series [2], at most 30 nM against CYP3A4 (CYP3A), 1 µM on CYP2D6 and 49 nM in series [4]. Moreover, in series [3], the “HLM” value came to 78 µL/min/mg.
